Measured values from the supplement of paper PMC9103864.

What was measured:
[1] = test system: BMSC (primary human bone marrow mesenchymal stromal cells); test: absolute EC50 for viability; higher = less sensitive
[2] = test system: BMSC (primary human bone marrow mesenchymal stromal cells); test: drug sensitivity score (DSS); higher = more sensitive

Structure (SMILES)	absolute EC50 for viability [1] [µM]	drug sensitivity score [2]
CC1CCC(n2c3cnccc3c3cnc(Nc4ccc5c(n4)CCN(C(=O)CO)C5)nc32)CC1 (configuration not stated) [AMG-925]	> 1	0
Nc1nc(Cl)nc2c1ncn2[C@@H]1O[C@H](CO)[C@@H](O)[C@@H]1F [Clofarabine]	0.739	11.4
COc1cc2nccc(Oc3ccc(NC(=O)NC4CC4)c(Cl)c3)c2cc1C(N)=O [Lenvatinib]	> 2.5	5.2
O=C(Nc1cccc(NC(=O)c2cccc(O)c2O)c1)c1cccc(O)c1O [MST-312]	1.22	9.7
O=C(NC1CCNCC1)c1n[nH]cc1NC(=O)c1c(Cl)cccc1Cl [AT7519]	0.462	12.2
NC(=O)c1cnc2[nH]ccc2c1NC1C2CC3CC1CC(O)(C3)C2 (configuration not stated) [Peficitinb]	> 2.5	1.7
CC(C)C[C@H](NC(=O)CNC(=O)c1cc(Cl)ccc1Cl)B(O)O [Ixazomib]	> 1	0.4
CC1(N)CCN(c2cnc(-c3cccc(Cl)c3Cl)c(N)n2)CC1 [NVP-SHP099]	> 10	0
COc1cc(N2CCN(C)CC2)ccc1Nc1nccc(-c2cn(C)c3cnccc23)n1 [AZ191]	2.71	8.1
O=C(O)c1ccc(-c2c[nH]c3ncc(-c4ccccc4)cc23)cc1C1CCCC1	> 10	0.7
Cn1ncc(Cl)c1-c1cc(C(=O)N[C@H](CN)Cc2ccc(F)c(F)c2)oc1Cl [Uprosertib]	> 10	2.4
Cc1c(C(=O)Nc2ccc(N3C[C@@H](C)O[C@@H](C)C3)nc2)cccc1-c1ccc(OC(F)(F)F)cc1 [Sonidegib]	> 10	0
CN(C)c1cc2c(cc1Sc1nc3c(N)nccc3n1CCNCC(C)(C)C)OCO2 [CUDC-305]	1.15	8.8
Cc1cc(F)c(C(=O)Nc2cccc(-c3nncn3C(C)C)n2)cc1-n1cnc(C2CC2)c1 [Selonsertib]	> 1	0
CCOC(=O)C1=CCCC[C@H]1S(=O)(=O)Nc1ccc(F)cc1Cl [Resatorvid]	9.93	0
CC(C)C[C@H](NC(=O)[C@H](Cc1ccccc1)NC(=O)c1cnccn1)B(O)O [Bortezomib]	0.0507	14.5
CCCCNc1ncc(C(=O)NCc2ccc(-n3ccnc3)cc2)c(NC2CCC(O)CC2)n1 (configuration not stated) [UNC2881]	> 2.5	0.1
CN1CCC(CNc2ccc3ncc(-c4cccc(OC(F)(F)F)c4)n3n2)CC1 [SGI-1776]	1.4	9.6
O=C(O)CCCCC(CCSCc1ccccc1)SCc1ccccc1 (configuration not stated) [CPI-613]	> 10	0
Cc1nc(NC(=O)N2CCC[C@H]2C(N)=O)sc1-c1ccnc(C(C)(C)C(F)(F)F)c1 [Alpelisib]	> 2.5	3.4
CCCCCCCCc1ccc(CCC(N)(CO)CO)cc1 [Fingolimod]	3.02	5.8

Structure (SMILES)	absolute EC50 for viability [1] [µM]	drug sensitivity score [2]
CNC(=O)c1ccc(-c2cnc3ncc(Cc4ccc5ncccc5c4)n3n2)cc1F [Capmatinib]	> 1	0.5
CN[C@@H](C)C(=O)N[C@H](C(=O)N1CCC[C@H]1c1nc(C(=O)c2ccc(F)cc2)cs1)C1CCCCC1 [NVP-LCL161]	> 25	0
NC(=O)/C(=C/n1cnc(-c2cc(C(F)(F)F)cc(C(F)(F)F)c2)n1)c1cncnc1 [Eltanexor]	> 10	9.6
CN1CCN(C2CCC(n3cc(-c4ccc(Oc5ccccc5)cc4)c4c(N)ncnc43)CC2)CC1 (configuration not stated)	1	11.1
CC(=O)N(O)CCCCCNC(=O)CCC(=O)N(O)CCCCCNC(=O)CCC(=O)N(O)CCCCCN [Deferoxamine]	> 10	0
CNC(=O)c1cccc(-c2ccc3c(N4CCOC[C@@H]4C)nc(N4CCOC[C@@H]4C)nc3n2)c1 [Vistusertib]	0.488	13.7
c1cn2cc(-c3ccc4cn[nH]c4c3)nc(Nc3ccc(N4CCOCC4)cc3)c2n1 [Entospletinib]	> 5	0
O=S(=O)(c1cccc2c(O)nccc12)N1CCCNCC1 [Hydroxyfasudil]	> 19	1
CC(C)Oc1ccc(C(=O)N[C@H](CNC(=O)CN(C)C)Cc2ccc(-c3cn4cccc([C@H](C)O)c4n3)cc2)cc1Cl	9.93	0
CCN(c1cc(-c2ccc(CN3CCOCC3)cc2)cc(C(=O)NCc2c(C)cc(C)[nH]c2=O)c1C)C1CCOCC1 [Tazemetostat]	> 10	0
CO[C@H]1CC[C@H](N2C(=O)CNc3ncc(-c4ccc(C(C)(C)O)nc4)nc32)CC1 [CC-223]	6.04	4.4
Cc1cc2c(C(=O)NC[C@H](C)c3ccccc3)c(O)c(O)cc2c(O)c1-c1c(C)cc2c(C(=O)NC[C@H](C)c3ccccc3)c(O)c(O)cc2c1O [Sabutoclax]	7.71	5.6
COc1cc2ncnc(Nc3ccc(F)c(Cl)c3)c2cc1NC(=O)/C=C/CN1CCCCC1 [Dacomitinib]	> 1	2.2
Cc1nc(Nc2n[nH]c3c2CN(C(=O)N[C@H](CN(C)C)c2ccccc2)C3(C)C)c2sccc2n1	2.86	7.4
COc1c(OCCCN2CCOCC2)ccc2c3n(c(=NC(=O)c4cnc(N)nc4)nc12)CCN3 [Copanlisib]	0.126	13
COC(=O)c1ccc2c(C(=Nc3ccc(N(C)C(=O)CN4CCN(C)CC4)cc3)c3ccccc3)c(O)[nH]c2c1 [Nintedanib]	2.56	9.7
O=C(c1ccc(OCCN2CCCCC2)cc1)c1c(-c2ccc(O)cc2)sc2cc(O)ccc12 [Raloxifene]	7.96	2.6
COc1ccc(Cn2ccc3ccc(C(=O)NO)cc32)cc1	9.93	0
Cc1ccc(C(=O)Nc2ccc(CN3CCN(C)CC3)c(C(F)(F)F)c2)cc1C#Cc1cnc2cccnn12 [Ponatinib]	> 1	4.6
CN1CC[C@@H](NC(=O)Nc2ccc(C#N)cc2)C[C@@H]1c1nc2ccccc2[nH]1 [Glasdegib]	> 1	0
NC(=O)NO [Hydroxyurea]	> 1000	-2.9

Structure (SMILES)	absolute EC50 for viability [1] [µM]	drug sensitivity score [2]
C[C@@H]1COC(Nc2ccc3ncnc(Nc4ccc(OCc5nccs5)c(Cl)c4)c3c2)=N1 [Varlitinib]	> 10	0.4
O=C(c1ccc(C(=O)N2CCC(N3CCCC3)CC2)c(Nc2ccccc2)c1)N1CCC(N2CCCC2)CC1 [UNC1215]	> 10	0
CON(C)C(=O)N1N=C(c2cc(F)ccc2F)S[C@@]1(CCCN)c1ccccc1 [Filanesib]	> 1	0
CCN1CCN(c2ccc(Nc3cc(N(C)C(=O)Nc4c(Cl)c(OC)cc(OC)c4Cl)ncn3)cc2)CC1 [Infigratinib]	> 1	0
Cc1cn(-c2cc(NC(=O)c3ccc(C)c(Nc4nccc(-c5cccnc5)n4)c3)cc(C(F)(F)F)c2)cn1 [Nilotinib]	> 10	0
CC[C@H](C)C(=O)O[C@H]1C[C@@H](C)C=C2C=C[C@H](C)[C@H](CC[C@@H]3C[C@@H](O)CC(=O)O3)[C@H]21 [Lovastatin]	> 10	0
CCCOc1ccn2c(C(C)=O)cc(-c3ccccc3S(C)(=O)=O)c2c1 [GSK2801]	> 10	0
CCS(=O)(=O)N1CC(CC#N)(n2cc(-c3ncnc4[nH]ccc34)cn2)C1 [Baricitinib]	> 2.5	0.1
CNC(=O)[C@@H](NC(=O)[C@H](CC(C)C)[C@H](O)C(=O)NO)C(C)(C)C [Marimastat]	> 10	0
O=C(CCCCCCC(=O)Nc1ccccc1)NO [Vorinostat]	2.94	5.6
CN(C)C1CCN(C(=O)c2ccc(NC(=O)Nc3ccc(-c4nc(N5CCOCC5)nc(N5CCOCC5)n4)cc3)cc2)CC1 [Gedatolisib]	0.0437	14.3
O=c1[nH]c(=O)n([C@H]2C[C@H](O)[C@@H](CO)O2)cc1C(F)(F)F [Trifluridine]	> 10	0
N#CCNC(=O)c1ccc(-c2ccnc(Nc3ccc(N4CCOCC4)cc3)n2)cc1 [Momelotinib]	> 10	5.1
CNC(=O)c1cc(Oc2ccc(NC(=O)Nc3ccc(Cl)c(C(F)(F)F)c3)c(F)c2)ccn1 [Regorafenib]	> 10	0.7
CNC(=O)c1cc(COc2nnc(Nc3ccc(Cl)cc3)c3ccoc23)ccn1 [Telatinib]	> 10	4.2
COc1cc2c(NC3CCN(C(C)C)CC3)nc(C3CCCCC3)nc2cc1OCCCN1CCCC1 [UNC0638]	3.29	5.4
O=C(Nc1cccc(Nc2ncc(Br)c(NCCc3cnc[nH]3)n2)c1)N1CCCC1 [BX-912]	2.17	6.7
Cn1nnc2c(C(N)=O)ncn2c1=O [Temozolomide]	> 100	0
CC1(C)OCCn2c1nc1c(N3CCOCC3)nc(-c3cnc(N)nc3)nc12 [GDC-0084]	0.643	13.2
